{"source": "patent US20080200568A1", "about": "“Genes Associated With Type ll Diabetes Mellitus” (priority 2005, published 2008)", "format_in_all_cases": "in vivo", "key": {"[1]": {"test_system": "C57BL/6J mice fed a high fat diet (Western Diet) and treated with streptozocin", "assay": "14 Day Chronic Study (glucose after 1st, 15th and 27th dose)", "conditions": "0, 7 and 13 days of treatment, twice daily dosing, compared to STZ treated mice without compound", "procedure": "A 14 day chronic study in C57BL/6J mice was performed. The animals were fed a high fat diet (Western Diet) and treated with a low dose of streptozocin (which damages the pancreatic beta-cells) resulting in both insulin resistance and insulin deficiency (as in T2DM patients). Mice were prepared as generally described above in Example 2. Two weeks after injection of streptozocin, a twice daily dosing schedule was started with: • 1. GW67021B (10 mg/kg, 30 mg/kg, or 100 mg/kg); or • 2. CB-1 (Rimonabant, antagonist of the CB-1 receptor; commonly used as a positive control for weight-loss inducing drugs) at 5 mg/kg; or • 3. GW34784 (PPAR gamma agonist compound as another positive control) at 3 mg/kg (also referred to as GW845 or GW7845))\nAll compounds were dosed in suspension in 0.5% HPMC; 0.1% Tween 80 by body weight. The same general procedures used in the acute study (Example 2) were utilized in this chronic study. Glucose was measured following the 1st, 15th and 27th dose (day 0, 7, and 13) at 0, 1, 2, 3, 4, and 5 hour time points. Results are graphed in FIGS. 3a-3c for the groups of mice receiving WD+Streptozocin+Vehicle (no compound); WD+Streptozocin+GW021 10 mg/kg; WD+Streptozocin+GW021 30 mg/kg; WD+Streptozocin+GW021 100 mg/kg; WD+Streptozocin+GW845 3 mg/kg; WD+Streptozocin+CB-1 5 mg/kg."}, "[2]": {"test_system": "streptozocin-treated mice fed a high-fat Western Diet", "assay": "Final Glucose Measurement on the 14th day (after 28th dose)", "conditions": "compared to mice not treated with compound (FIG. 4)", "procedure": "Groups of mice were maintained on diet and dosing schedules as described, and on the 14th day were moved to the procedure room, dosed with a final 28th dose (of compound or vehicle only, according to their group as shown in FIG. 4), then acclimated for about 1 hour with access to food and water before bleeding to measure blood glucose.\nIn FIG. 4 the first […] bars (from left to right) represent mice that were treated with STZ and vehicle only; STZ and GW021B 10 mg/kg; STZ and GW021 B 30 mg/kg; STZ and GW021 B 100 mg/kg; STZ and GW845 3 mg/kg. The seventh bar represents mice that were not treated with STZ (citric acid control) and were not treated with any compound (Vehicle only). “Vehicle” mice were dosed with HPMC/Tween only (no GW021, CB-1 or GW 845). Each bar represents an average of a single blood draw taken on day 14 from each of the ten mice in a group."}, "[3]": {"test_system": "male C57BL/6J mice fed a high fat Western Diet, with or without streptozotocin", "assay": "Acute Glucose Lowering Study (tail-vein blood glucose over 5 hours after a single dose)", "conditions": "for average change in blood glucose measurement: 100 mg/kg, N=10", "from_the_text": "The studies reported below dosed male C57BL/6J mice with an EP3 antagonist, GW671021B, and monitored the effects on glucose homeostasis by measuring tail-vein blood glucose. The animals were either (a) fed a high fat diet to induce mild insulin resistance, or (b) were fed the high fat diet and also treated with a low dose of streptozotocin (which damages the pancreatic beta-cells) resulting in both insulin resistance and insulin deficiency (as in T2DM patients).\nMaterials and Methods: Male 6 week old C57BL/6J mice (Jackson Laboratory, Bar Harbor Me.) were made mildly insulin resistant by feeding a high fat Western Diet (WD) (Research Diets, D12079B) for 3 weeks. Test mice were then made insulin deficient by intraperitoneal injection (IP) with 100 mg/kg Streptozotocin (STZ or streptozocin; Zanosar®, Sicor Pharmaceuticals, Irvine, Calif.) reconstituted in citric acid. Control mice (also on the WD) were injected with the same volume and concentration of citric acid without the STZ. Two weeks after the STZ (or control citric acid) injections the mice received injections of either GW021 in vehicle, or vehicle alone (as described below). Student's t-test or Tukey's HSD (Honestly Significant Different) test was used to determine the significance of the results.\nAcute Glucose Lowering Study: At 6:30 am mice were transferred to clean cages with water in the procedure room and allowed to acclimate for 1 hour. After acclimation, a small snip was made at the tip of the tail for blood collection and baseline glucose measurements were collected using the Bayer Elite XL glucometer. Mice were dosed with either compound GW671021B (100 mg/kg body weight) in a suspension in 0.5% HPMC, 0.1% Tween 80; or dosed with Vehicle only (HPMC, 0.1% Tween 80). Whole blood for glucose measurement was collected at 0.5, 1, 2, 3, 4, and 5 hours after dosing. […] There were 10 mice in each treatment group.\nData represent an average blood glucose measurement (mg/dL) of the 10 mice in each treatment group at each time point."}}}
{"smiles": "COc1ccc(Br)cc1S(=O)(=O)[N-]C(=O)/C=C/c1ccccc1Cc1ccc2ccccc2c1.[Na+]", "note": "[GW021B]", "values": [{"measurement": "effect on glucose (change compared to baseline), in words", "setting": "[1]", "value": "continued to have glucose lowering effects"}, {"measurement": "blood glucose level on the fourteenth day of treatment, in words", "setting": "[2]", "value": "lower blood glucose levels"}, {"measurement": "average change in blood glucose measurement", "setting": "[3]; WD + STZ mice, 0 hrs (baseline)", "value": 0, "unit": "mg/dL"}, {"measurement": "average change in blood glucose measurement", "setting": "[3]; WD + STZ mice, 0.5 hrs after dosing", "value": -16, "unit": "mg/dL"}, {"measurement": "average change in blood glucose measurement", "setting": "[3]; WD + STZ mice, 1 hr after dosing", "value": -46, "unit": "mg/dL"}, {"measurement": "average change in blood glucose measurement", "setting": "[3]; WD + STZ mice, 2 hrs after dosing", "value": -59, "unit": "mg/dL"}, {"measurement": "average change in blood glucose measurement", "setting": "[3]; WD + STZ mice, 3 hrs after dosing", "value": -66, "unit": "mg/dL"}, {"measurement": "average change in blood glucose measurement", "setting": "[3]; WD + STZ mice, 4 hrs after dosing", "value": -83, "unit": "mg/dL"}, {"measurement": "average change in blood glucose measurement", "setting": "[3]; WD + STZ mice, 5 hrs after dosing", "value": -79, "unit": "mg/dL"}, {"measurement": "average change in blood glucose measurement", "setting": "[3]; WD + citric acid mice (no STZ), 0 hrs (baseline)", "value": 0, "unit": "mg/dL"}, {"measurement": "average change in blood glucose measurement", "setting": "[3]; WD + citric acid mice (no STZ), 0.5 hrs after dosing", "value": -14, "unit": "mg/dL"}, {"measurement": "average change in blood glucose measurement", "setting": "[3]; WD + citric acid mice (no STZ), 1 hr after dosing", "value": -14, "unit": "mg/dL"}, {"measurement": "average change in blood glucose measurement", "setting": "[3]; WD + citric acid mice (no STZ), 2 hrs after dosing", "value": -9, "unit": "mg/dL"}, {"measurement": "average change in blood glucose measurement", "setting": "[3]; WD + citric acid mice (no STZ), 3 hrs after dosing", "value": -18, "unit": "mg/dL"}, {"measurement": "average change in blood glucose measurement", "setting": "[3]; WD + citric acid mice (no STZ), 4 hrs after dosing", "value": -37, "unit": "mg/dL"}, {"measurement": "average change in blood glucose measurement", "setting": "[3]; WD + citric acid mice (no STZ), 5 hrs after dosing", "value": -37, "unit": "mg/dL"}, {"measurement": "effect on blood glucose (change compared to baseline), in words", "setting": "[3]; streptozocin-treated C57BL/6J mice fed high-fat Western Diet, 5 hour time course", "value": "blood glucose lowering effect"}]}
